From patent US9012200B2, “Composition of bacterial strains, bioremediation mixture and use of this composition for the removal of contaminants from the soil and the method for purifying the soil contaminants” (priority 2012, dated 2015)
Values after ≈ are worked out from the molar mass of the structure shown. Like-named read-outs stand apart in the source and are kept apart here.

Columns and labels:
Assay type in all cases: cell-based
[1] = system: Stenotrophomonas sp. strain 3N; assay: Disc diffusion antibiotic susceptibility
Protocol: (§1) A disc diffusion method was performed to determine the susceptibility of bacteria to the selected antibiotics. We used discs soaked with the antibiotic of a well-defined concentration (BioMerioux) (Table 2) and the minimal inhibitory concentration test was carried out, using E-tests (Oxoid) (Table 3).
(§2) A McFarland's 0.5 inoculum was prepared from each strain's culture, using a densitometer (EMO). Then, using sterile cotton swabs, the suspension of bacterial cells was spread on dishes with ready-to-use MHA medium (Oxoid), and after 15 minutes, discs soaked with antibiotics at defined concentrations were placed on them.
(§3) The dishes were incubated at 25-30° C., and the results were read after 24 and 48 hours. The measure of susceptibility of a tested strain to a given antibiotic was the size of the inhibition zone which formed around the disc soaked with the antibiotic. The results read (sizes of zones measured in mm) were compared with the data contained in the European Committee on Antimicrobial Susceptibility Testing (EUCAST) standards from 2010 (Table 4).
(§4) The measure of susceptibility of the tested bacterial strain to a given antibiotic was the size of the inhibition zone which formed around the disc (Table 5).

[2] = system: Pseudomonas sp. strain 4G; assay: Disc diffusion antibiotic susceptibility; details: 24 h
Protocol: as §1, §2, §3, §4

[3] = system: Brevundimonas sp. strain 5N; assay: Disc diffusion antibiotic susceptibility; details: 24 h
Protocol: as §1, §2, §3, §4

[4] = system: Pseudomonas sp. strain 3G; assay: Disc diffusion antibiotic susceptibility
Protocol: as §1, §2, §3, §4

[5] = system: Stenotrophomonas sp. strain 6L; assay: Disc diffusion antibiotic susceptibility; details: 24 h
Protocol: as §1, §2, §3, §4

[6] = system: Arthrobacter sp. strain 1N; assay: Disc diffusion antibiotic susceptibility
Protocol: as §1, §2, §3, §4

[7] = system: Brevundimonas sp. strain 6N; assay: Disc diffusion antibiotic susceptibility
Protocol: as §1, §2, §3, §4

[8] = system: Achromobacter sp. strain 4P; assay: Disc diffusion antibiotic susceptibility
Protocol: as §1, §2, §3, §4

[9] = system: Stenotrophomonas sp. strain 5L; assay: Disc diffusion antibiotic susceptibility; details: 24 h
Protocol: as §1, §2, §3, §4

[10] = system: Brevundimonas sp. strain 2N; assay: Disc diffusion antibiotic susceptibility
Protocol: as §1, §2, §3, §4

[11] = system: Stenotrophomonas sp. strain 2L; assay: Disc diffusion antibiotic susceptibility
Protocol: as §1, §2, §3, §4

[12] = system: Stenotrophomonas sp. strain 3N; assay: Antibiotic MIC by E-test; details: 24 h; for MIC: Stenotrophomonas, read-out: MIC threshold values for a given antibiotic
Protocol: as §1
(§5) In the next stage of the research, MIC values of a given antibiotic for the investigated strains were determined, meaning the lowest concentration of the drug, expressed in mg/L, determined in vitro, which inhibits the growth of bacteria at a defined inoculum density, within a given time (Hryniewicz et at, 2001). These studies allow for the closer determination of the degree of susceptibility of bacteria to the applied antibiotics.
(§6) A bacterial suspension was evenly distributed on dishes with ready-to-use MHA medium (Oxoid), and then plastic testing strips (E-tests) soaked with an antibiotic with a concentration gradient were placed thereon. The dishes were incubated at 25-30° C. for 24 h, and the test results were read after this time.
(§7) The intersection of elliptical zone of inhibition, which appeared around the test strip, with the value indicator on the gradient scale of the strip, determined the lowest concentration of antibiotic, inhibiting growth of the microorganism (MIC). Similarly as in the disc diffusion method, the obtained results were compared with the guidelines contained in the relevant standards.

[13] = system: Pseudomonas sp. strain 4G; assay: Antibiotic MIC by E-test; details: 24 h; for MIC: Pseudomonas, read-out: MIC threshold values for a given antibiotic
Protocol: as §1, §5, §6, §7

[14] = system: Brevundimonas sp. strain 5N; assay: Antibiotic MIC by E-test; details: 24 h; for MIC: Brevundimonas, read-out: MIC threshold values for a given antibiotic
Protocol: as §1, §5, §6, §7

[15] = system: Pseudomonas sp. strain 3G; assay: Antibiotic MIC by E-test; details: 24 h; for MIC: Pseudomonas, read-out: MIC threshold values for a given antibiotic
Protocol: as §1, §5, §6, §7

[16] = system: Stenotrophomonas sp. strain 6L; assay: Antibiotic MIC by E-test; details: 24 h; for MIC: Stenotrophomonas, read-out: MIC threshold values for a given antibiotic
Protocol: as §1, §5, §6, §7

[17] = system: Arthrobacter sp. strain 1N; assay: Antibiotic MIC by E-test; details: 24 h; for MIC: Arthrobacter, read-out: MIC threshold values for a given antibiotic
Protocol: as §1, §5, §6, §7

[18] = system: Brevundimonas sp. strain 6N; assay: Antibiotic MIC by E-test; details: 24 h; for MIC: Brevundimonas, read-out: MIC threshold values for a given antibiotic
Protocol: as §1, §5, §6, §7

[19] = system: Achromobacter sp. strain 4P; assay: Antibiotic MIC by E-test; details: 24 h; for MIC: Achromobacter, read-out: MIC threshold values for a given antibiotic
Protocol: as §1, §5, §6, §7

[20] = system: Stenotrophomonas sp. strain 5L; assay: Antibiotic MIC by E-test; details: 24 h; for MIC: Stenotrophomonas, read-out: MIC threshold values for a given antibiotic
Protocol: as §1, §5, §6, §7

[21] = system: Brevundimonas sp. strain 2N; assay: Antibiotic MIC by E-test; details: 24 h; for MIC: Brevundimonas, read-out: MIC threshold values for a given antibiotic
Protocol: as §1, §5, §6, §7

[22] = system: Stenotrophomonas sp. strain 2L; assay: Antibiotic MIC by E-test; details: 24 h; for MIC: Stenotrophomonas, read-out: MIC threshold values for a given antibiotic
Protocol: as §1, §5, §6, §7

gentamicin [CN]
Size of the growth inhibition zone ([1]; 24 h): 25 mm
Size of the growth inhibition zone ([1]; 48 h): 0 mm
Size of the growth inhibition zone [2]: 0 mm
Size of the growth inhibition zone [3]: 24 mm
Size of the growth inhibition zone ([4]; 24 h): 22 mm
Size of the growth inhibition zone ([4]; 48 h): 20 mm
Size of the growth inhibition zone [5]: 0 mm
Size of the growth inhibition zone ([6]; 24 h): 23 mm
Size of the growth inhibition zone ([6]; 48 h): 18 mm
Size of the growth inhibition zone ([7]; 24 h): 23 mm
Size of the growth inhibition zone ([7]; 48 h): 20 mm
Size of the growth inhibition zone ([8]; 24 h): 22 mm
Size of the growth inhibition zone ([8]; 48 h): 21 mm
Size of the growth inhibition zone [9]: 22 mm
Size of the growth inhibition zone ([10]; 24 h): 24 mm
Size of the growth inhibition zone ([10]; 48 h): 21 mm
Size of the growth inhibition zone ([11]; 24 h): 24 mm
Size of the growth inhibition zone ([11]; 48 h): 19 mm
MIC threshold values for a given antibiotic [12]: 8 µg/mL
MIC threshold values for a given antibiotic [13]: ≧256 μg/ml
MIC threshold values for a given antibiotic [14]: 4 µg/mL
MIC threshold values for a given antibiotic [15]: ≧256 μg/ml
MIC threshold values for a given antibiotic [16]: 256 µg/mL
MIC threshold values for a given antibiotic ([17]; strain 1N, E-test): 8 µg/mL
MIC threshold values for a given antibiotic [18]: 8 µg/mL
MIC threshold values for a given antibiotic ([19]; strain 4P, E-test): 4 µg/mL
MIC threshold values for a given antibiotic [20]: 8 µg/mL
MIC threshold values for a given antibiotic [21]: 8 µg/mL
MIC threshold values for a given antibiotic [22]: 4 µg/mL

CC1(C)S[C@@H]2[C@H](NC(=O)Cc3ccccc3)C(=O)N2[C@H]1C(=O)O [P, penicillin G]
Size of the growth inhibition zone ([1]; 24 h): 0 mm
Size of the growth inhibition zone [2]: 0 mm
Size of the growth inhibition zone [3]: 0 mm
Size of the growth inhibition zone ([4]; 24 h): 0 mm
Size of the growth inhibition zone [5]: 0 mm
Size of the growth inhibition zone ([6]; 24 h): 0 mm
Size of the growth inhibition zone ([7]; 24 h): 0 mm
Size of the growth inhibition zone ([8]; 24 h): 0 mm
Size of the growth inhibition zone [9]: 0 mm
Size of the growth inhibition zone ([10]; 24 h): 0 mm
Size of the growth inhibition zone ([11]; 24 h): 0 mm
MIC [12]: ≥ 32 µg/mL
MIC [13]: ≥ 32 µg/mL
MIC [14]: ≥ 32 µg/mL
MIC [15]: ≥ 32 µg/mL
MIC [16]: ≥ 32 µg/mL
MIC ([17]; strain 1N, E-test): ≥ 32 µg/mL
MIC [18]: ≥ 32 µg/mL
MIC ([19]; strain 4P, E-test): ≥ 32 µg/mL
MIC [20]: ≥ 32 µg/mL
MIC [21]: ≥ 32 µg/mL
MIC [22]: ≥ 32 µg/mL

CN[C@H](CC(C)C)C(=O)N[C@H]1C(=O)N[C@@H](CC(N)=O)C(=O)N[C@H]2C(=O)N[C@H]3C(=O)N[C@H](C(=O)N[C@H](C(=O)O)c4cc(O)cc(O)c4-c4cc3ccc4O)[C@H](O)c3ccc(c(Cl)c3)Oc3cc2cc(c3O[C@@H]2O[C@H](CO)[C@@H](O)[C@H](O)[C@H]2O[C@H]2C[C@](C)(N)[C@H](O)[C@H](C)O2)Oc2ccc(cc2Cl)[C@H]1O [VA, vancomycin]
Size of the growth inhibition zone ([1]; 24 h): 0 mm
Size of the growth inhibition zone [2]: 0 mm
Size of the growth inhibition zone [3]: 0 mm
Size of the growth inhibition zone ([4]; 24 h): 0 mm
Size of the growth inhibition zone [5]: 0 mm
Size of the growth inhibition zone ([6]; 24 h): 0 mm
Size of the growth inhibition zone ([7]; 24 h): 0 mm
Size of the growth inhibition zone ([8]; 24 h): 0 mm
Size of the growth inhibition zone [9]: 0 mm
Size of the growth inhibition zone ([10]; 24 h): 0 mm
Size of the growth inhibition zone ([11]; 24 h): 0 mm
MIC [17]: ≥ 256 µg/mL

CO/N=C(\C(=O)N[C@@H]1C(=O)N2C(C(=O)O)=C(CSc3nc(=O)c(=O)[nH]n3C)CS[C@H]12)c1csc(N)n1 [TX, ceftriaxone]
MIC [12]: ≥ 256 µg/mL
MIC [13]: ≥ 256 µg/mL
MIC [14]: ≥ 256 µg/mL
MIC [15]: ≥ 256 µg/mL
MIC [16]: ≥ 256 µg/mL
MIC ([17]; strain 1N, E-test): ≥ 256 µg/mL
MIC [18]: ≥ 256 µg/mL
MIC [19]: 16 µg/mL (≈ 28.9 µM)
MIC [20]: ≥ 256 µg/mL
MIC [21]: ≥ 256 µg/mL
MIC [22]: ≥ 256 µg/mL
